From ChEMBL document CHEMBL4715746, “Polyvalent effect enhances diglycosidic antiplasmodial activity” (Eur J Med Chem, 2016)

Assays:
Plasmodium falciparum [1] = experiment: Antiplasmodial activity against chloroquine-resistant Plasmodium falciparum W2 assessed as inhibition of parasite growth incubated for 48 hrs by SYBR green 1 dye based fluorescence assay; assay type: functional, organism-based
Plasmodium falciparum [2] = experiment: Antiplasmodial activity against chloroquine-sensitive Plasmodium falciparum 3D7 assessed as inhibition of parasite growth incubated for 48 hrs by SYBR green 1 dye based fluorescence assay; assay type: functional, organism-based
HEK293 [3] = experiment: Cytotoxicity against human HEK293 cells assessed as reduction in cell viability at 50,000 ug/L incubated for 24 hrs by MTT assay; assay type: cell-based; conditions: hek293, 24 h
HEK293 [4] = experiment: Cytotoxicity against human HEK293 cells assessed as reduction in cell viability up to 500 ug/L incubated for 24 hrs by MTT assay; assay type: cell-based; conditions: hek293, 24 h
[5] = Plasmodium falciparum, W2, 48 h
[6] = Plasmodium falciparum, 3D7, 48 h

CO[C@@H]1O[C@H](COC(C)=O)[C@@H](O)[C@H](O)[C@H]1O[C@@H]1O[C@@H](C)[C@H](OC(C)=O)[C@@H](OC(C)=O)[C@H]1OC(C)=O
IC50 (Plasmodium falciparum [1]; [5]): 100 µM | IC50 (Plasmodium falciparum [2]; [6]): 143 µM

CC(=O)OC[C@H]1O[C@@H](OCCCn2cc(COC[C@H]3O[C@@H](OCc4cn(CCCO[C@@H]5O[C@H](COC(C)=O)[C@@H](O)[C@H](O)[C@H]5O[C@@H]5O[C@@H](C)[C@H](OC(C)=O)[C@@H](OC(C)=O)[C@H]5OC(C)=O)nn4)[C@H](OCc4cnnn4CCCO[C@@H]4O[C@H](COC(C)=O)[C@@H](O)[C@H](O)[C@H]4O[C@@H]4O[C@@H](C)[C@H](OC(C)=O)[C@@H](OC(C)=O)[C@H]4OC(C)=O)[C@@H](OCc4cn(CCCO[C@@H]5O[C@H](COC(C)=O)[C@@H](O)[C@H](O)[C@H]5O[C@@H]5O[C@@H](C)[C@H](OC(C)=O)[C@@H](OC(C)=O)[C@H]5OC(C)=O)nn4)[C@H]3OCc3cn(CCCO[C@@H]4O[C@H](COC(C)=O)[C@@H](O)[C@H](O)[C@H]4O[C@@H]4O[C@@H](C)[C@H](OC(C)=O)[C@@H](OC(C)=O)[C@H]4OC(C)=O)nn3)nn2)[C@H](O[C@@H]2O[C@@H](C)[C@H](OC(C)=O)[C@@H](OC(C)=O)[C@H]2OC(C)=O)[C@@H](O)[C@@H]1O
IC50 (Plasmodium falciparum [1]; [5]): 21.9 µM | IC50 (Plasmodium falciparum [2]; [6]): 13 µM

CCN(CC)CCCC(C)Nc1ccnc2cc(Cl)ccc12 (configuration not stated) [CHLOROQUINE]
Activity (HEK293 [3]): Toxic | Activity (HEK293 [4]): Non-Toxic

CC(=O)OC[C@H]1O[C@@H](OCCCn2cc(COCCOCc3cn(CCCO[C@@H]4O[C@H](COC(C)=O)[C@@H](O)[C@H](O)[C@H]4O[C@@H]4O[C@@H](C)[C@H](OC(C)=O)[C@@H](OC(C)=O)[C@H]4OC(C)=O)nn3)nn2)[C@H](O[C@@H]2O[C@@H](C)[C@H](OC(C)=O)[C@@H](OC(C)=O)[C@H]2OC(C)=O)[C@@H](O)[C@@H]1O
IC50 (Plasmodium falciparum [1]; [5]): 37.1 µM | IC50 (Plasmodium falciparum [2]; [6]): 41.6 µM

CC(=O)OC[C@H]1O[C@@H](OCCCn2cc(COCC(COCc3cn(CCCO[C@@H]4O[C@H](COC(C)=O)[C@@H](O)[C@H](O)[C@H]4O[C@@H]4O[C@@H](C)[C@H](OC(C)=O)[C@@H](OC(C)=O)[C@H]4OC(C)=O)nn3)(COCc3cn(CCCO[C@@H]4O[C@H](COC(C)=O)[C@@H](O)[C@H](O)[C@H]4O[C@@H]4O[C@@H](C)[C@H](OC(C)=O)[C@@H](OC(C)=O)[C@H]4OC(C)=O)nn3)COCc3cn(CCCO[C@@H]4O[C@H](COC(C)=O)[C@@H](O)[C@H](O)[C@H]4O[C@@H]4O[C@@H](C)[C@H](OC(C)=O)[C@@H](OC(C)=O)[C@H]4OC(C)=O)nn3)nn2)[C@H](O[C@@H]2O[C@@H](C)[C@H](OC(C)=O)[C@@H](OC(C)=O)[C@H]2OC(C)=O)[C@@H](O)[C@@H]1O
IC50 (Plasmodium falciparum [1]; [5]): 25.2 µM | IC50 (Plasmodium falciparum [2]; [6]): 28.1 µM

CC(=O)OC[C@H]1O[C@@H](OCCCn2cc(COC[C@H]3O[C@@H](O[C@H]4[C@H](OCc5cn(CCCO[C@@H]6O[C@H](COC(C)=O)[C@@H](O)[C@H](O)[C@H]6O[C@@H]6O[C@@H](C)[C@H](OC(C)=O)[C@@H](OC(C)=O)[C@H]6OC(C)=O)nn5)[C@@H](OCc5cnnn5CCCO[C@@H]5O[C@H](COC(C)=O)[C@@H](O)[C@H](O)[C@H]5O[C@@H]5O[C@@H](C)[C@H](OC(C)=O)[C@@H](OC(C)=O)[C@H]5OC(C)=O)[C@H](OCc5cn(CCCO[C@@H]6O[C@H](COC(C)=O)[C@@H](O)[C@H](O)[C@H]6O[C@@H]6O[C@@H](C)[C@H](OC(C)=O)[C@@H](OC(C)=O)[C@H]6OC(C)=O)nn5)O[C@@H]4COCc4cn(CCCO[C@@H]5O[C@H](COC(C)=O)[C@@H](O)[C@H](O)[C@H]5O[C@@H]5O[C@@H](C)[C@H](OC(C)=O)[C@@H](OC(C)=O)[C@H]5OC(C)=O)nn4)[C@H](OCc4cnnn4CCCO[C@@H]4O[C@H](COC(C)=O)[C@@H](O)[C@H](O)[C@H]4O[C@@H]4O[C@@H](C)[C@H](OC(C)=O)[C@@H](OC(C)=O)[C@H]4OC(C)=O)[C@@H](OCc4cn(CCCO[C@@H]5O[C@H](COC(C)=O)[C@@H](O)[C@H](O)[C@H]5O[C@@H]5O[C@@H](C)[C@H](OC(C)=O)[C@@H](OC(C)=O)[C@H]5OC(C)=O)nn4)[C@H]3OCc3cnnn3CCCO[C@@H]3O[C@H](COC(C)=O)[C@@H](O)[C@H](O)[C@H]3O[C@@H]3O[C@@H](C)[C@H](OC(C)=O)[C@@H](OC(C)=O)[C@H]3OC(C)=O)nn2)[C@H](O[C@@H]2O[C@@H](C)[C@H](OC(C)=O)[C@@H](OC(C)=O)[C@H]2OC(C)=O)[C@@H](O)[C@@H]1O
IC50 (Plasmodium falciparum [1]): 12.6 µM | IC50 (Plasmodium falciparum [2]): 28.4 µM

CC(=O)OC[C@H]1O[C@@H](OCCCN=[N+]=[N-])[C@H](O[C@@H]2O[C@@H](C)[C@H](OC(C)=O)[C@@H](OC(C)=O)[C@H]2OC(C)=O)[C@@H](O)[C@@H]1O
IC50 (Plasmodium falciparum [1]; [5]): 41.9 µM | Activity (HEK293 [3]): Non-Toxic | IC50 (Plasmodium falciparum [2]; [6]): 58.7 µM | Activity (HEK293 [4]): Non-Toxic

CC(=O)OC[C@H]1O[C@@H](OCCCn2cc(COc3cc(OCc4cnnn4CCCO[C@@H]4O[C@H](COC(C)=O)[C@@H](O)[C@H](O)[C@H]4O[C@@H]4O[C@@H](C)[C@H](OC(C)=O)[C@@H](OC(C)=O)[C@H]4OC(C)=O)cc(OCc4cnnn4CCCO[C@@H]4O[C@H](COC(C)=O)[C@@H](O)[C@H](O)[C@H]4O[C@@H]4O[C@@H](C)[C@H](OC(C)=O)[C@@H](OC(C)=O)[C@H]4OC(C)=O)c3)nn2)[C@H](O[C@@H]2O[C@@H](C)[C@H](OC(C)=O)[C@@H](OC(C)=O)[C@H]2OC(C)=O)[C@@H](O)[C@@H]1O
IC50 (Plasmodium falciparum [1]; [5]): 23.6 µM | IC50 (Plasmodium falciparum [2]; [6]): 41.1 µM

CCCCCCCCCCCCCCCCO[C@@H]1O[C@H](COC(C)=O)[C@@H](O)[C@H](O)[C@H]1O[C@@H]1O[C@@H](C)[C@H](OC(C)=O)[C@@H](OC(C)=O)[C@H]1OC(C)=O
IC50 (Plasmodium falciparum [1]; [5]): 17.3 µM | Activity (HEK293 [3]): Toxic | IC50 (Plasmodium falciparum [2]; [6]): 24.6 µM | Activity (HEK293 [4]): Non-Toxic
